What all share (assay type): cell-based
Assay [1] has as its system Escherichia coli—Carbapenemase-producing organism; New-Dehli Metallobetalactamase. Here is the method: (§1) Independent experiments were conducted with four strains of E. coli, including ATCC E. coli (Escherichia coli—ATCC 25922 “wild type”); ESBL E. coli (Escherichia coli—Extended spectrum beta-lactamase); CPO E. coli (KPC) (Escherichia coli—Carbapenemase-producing organism; Klebsiella pneumoniae carbapenemase); and CPO E. coli (NDM) (Escherichia coli—Carbapenemase-producing organism; New-Dehli Metallobetalactamase).
(§2) The ATCC (American Type Culture Collection) strains received from Cedarlane. Multi drug resistant (MDR) strains, as clinical isolates, were received from the laboratory of Dr. Linda Hoang.
(§3) Putative antimicrobial peptides were synthesized by GeneScript. A-list antimicrobial peptides re-synthesized by GeneScript. P2_CCH, P5_CCH, and P5_CCH_A19K were each synthesized under two conditions: standard synthesis using TFA, and the other with TFA-removal using acetate as a counter-ion. A MIC method, adapted for use with cationic antimicrobial peptides, was used to evaluate MIC antimicrobial activity (Hancock 1999).
(§4) The following data are presented to show the activity (MIC/MBC in μg/mL) of certain antimicrobial peptides described herein relative to a modified/synthetic version having a specified substitution. While data presented in tables above may be presented again, or may be represented in data provided in the tables below, such duplication is believed to assist the reader in readily noting comparisons. Different Run Numbers noted in the following tables denotes experiments conducted on different days, with each run reflecting multiple n values.

The subject of assay [2] is Escherichia coli—Carbapenemase-producing organism; Klebsiella pneumoniae carbapenemase. The method, then:
as §1, §2, §3, §4

Assay [3] deals with Escherichia coli—Extended spectrum beta-lactamase. Here is the method:
as §1, §2, §3, §4

Assay [4] concerns Escherichia coli—ATCC 25922 “wild type”. Here is the method: as §1, §2, §3, §4
Assay [5] has as its system Salmonella Heidelberg (MDR).
Text: as §2, §3, §4

Assay [6] concerns Methicillin resistant Staphylococcus aureus. The conditions noted are these: Methicillin resistant. Here is the method:
(§5) Independent experiments were conducted with different strains of Staphylococcus aureus—ATCC 29213 “wild type”; and Staphylococcus aureus—Methicillin resistant Staphylococcus aureus.
as §2, §3, §4

In assay [7] the test system is Staphylococcus aureus—ATCC 29213 “wild type”. The conditions noted are these: ATCC 29213. The method, then: as §5, §2, §3, §4
A further assay has as its system Salmonella Enteritidis.
Text: as §3, §4

For assay [8], the system named is Streptococcus pyogenes: unknown strain, hospital isolate. The conditions noted are these: unknown strain, hospital isolate. The method, boiled down:
(§6)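 MIC and MBC were run by broth microdilution adapted from Hancock cationic-AMP and CLSI methods, in Mueller Hinton broth (+5% lysed horse blood for S. pyogenes) at about 5×10^5 CFU/mL. Peptides came from two-fold 10× stocks (2560–5 μg/mL) and were incubated 16-24 h at 37 °C. For MBC, the MIC well and two more-concentrated wells were plated on MHA for 24 h at 37 °C.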

Assay [9] has as its system Staphylococcus aureus: ATCC 6538P. The conditions noted are these: ATCC 6538. The method, boiled down: as §6
Assay [10] has as its system Escherichia coli: ATCC 9723H. The conditions noted are these: ATCC 9723. The procedure, abridged:
as §6

Assay [11] has as its system Mycobacterium smegmatis (MC^2155). To be noted: Mycobacterium (MC^2155). The method, boiled down:
as §6

Assay [12] concerns Pseudomonas aeruginosa: ATCC 10148. To be noted: ATCC 10148. The procedure, abridged: as §6
Where [13] appears, read: Salmonella Heidelberg (MDR), Run No. 2.
Where [14] appears, read: Salmonella Heidelberg (MDR), Run No. 3.

Values after ≈ are worked out from the molar mass of the structure shown. Read-outs that look alike come from different tables or passages of the source. Ends that are not written are not given here. Peptide text beside a SMILES is read from it.

In the case of `CC[C@H](C)[C@H](NC(=O)[C@@H](NC(=O)[C@@H]1CCCN1C(=O)[C@H](Cc1ccccc1)NC(=O)[C@@H](N)Cc1ccccc1)[C@@H](C)CC)C(=O)N[C@@H](C)C(=O)N[C@@H](CCCNC(=N)N)C(=O)N[C@@H](CC(C)C)C(=O)N[C@@H](C)C(=O)N[C@@H](C)C(=O)N[C@@H](CCCCN)C(=O)N[C@H](C(=O)N[C@H](C(=O)N1CCC[C@H]1C(=O)N[C@@H](CO)C(=O)N[C@@H](CC(C)C)C(=O)N[C@H](C(=O)N[C@@H](CS)C(=O)N[C@@H](C)C(=O)N[C@H](C(=O)N[C@H](C(=O)N[C@@H](CCCCN)C(=O)N[C@@H](CCCCN)C(=O)N[C@@H](CS)C(=O)O)[C@@H](C)O)C(C)C)C(C)C)[C@@H](C)CC)C(C)C` [Peptide P5_CCH] (H-FFPIIARLAAKVIPSLVCAVTKKC-OH; N-terminus and C-terminus assumed), the “Minimum Inhibitory Concentration (MIC)” value in [1] fell in the range of 4 to 32 µg/mL; in assay [2], 4 to 16 µg/mL; in assay [3], 8 to 32 µg/mL; in [4], 4 to 16 µg/mL; in assay [5], 32 to 128 µg/mL; in assay [6], 2 to 8 µg/mL. The “Minimum Inhibitory Concentration (MIC)” value in [7] lay within 4 to 8 µg/mL; in the assay on Salmonella Enteritidis it was 64 to 128 µg/mL. The MBC in assay [8] is 128 µg/mL (≈ 49.4 µM); in [9] it was 16 µg/mL (≈ 6.18 µM); in assay [10], 32 µg/mL (≈ 12.4 µM); in assay [11], more than 256 µg/mL. Further, the MIC was 128 µg/mL (≈ 49.4 µM) in assay [8], 4 µg/mL (≈ 1.54 µM) in [9], 16 µg/mL (≈ 6.18 µM) in assay [10] and 2 µg/mL (≈ 0.772 µM) in assay [11].
On to `CC[C@H](C)[C@H](NC(=O)[C@H](CCCCN)NC(=O)[C@H](CCCCN)NC(=O)CNC(=O)[C@@H](NC(=O)[C@@H](NC(=O)[C@H](CCCCN)NC(=O)[C@@H](NC(=O)[C@@H](NC(=O)[C@H](CCC(=O)O)NC(=O)[C@H](Cc1c[nH]c2ccccc12)NC(=O)[C@H](CC(C)C)NC(=O)CN)[C@@H](C)O)[C@@H](C)CC)[C@@H](C)O)[C@@H](C)O)C(=O)N[C@@H](C)C(=O)N[C@@H](CC(C)C)C(=O)N[C@@H](CC(N)=O)C(=O)N[C@@H](CC(C)C)C(=O)N[C@@H](CC(C)C)C(=O)N[C@@H](CC(=O)O)C(=O)N[C@@H](CCCCN)C(=O)N[C@H](C(=O)N[C@@H](CCCCN)C(=O)N[C@@H](CS)C(=O)N[C@@H](CCCCN)C(=O)N[C@H](C(=O)N[C@@H](C)C(=O)NCC(=O)NCC(=O)N[C@@H](CS)C(=O)N1CCC[C@H]1C(=O)N1CCC[C@H]1C(=O)O)[C@@H](C)CC)[C@@H](C)CC` [Peptide P6_CCH_S12K] (H-GLWETIKTTGKKIALNLLDKIKCKIAGGCPP-OH; N-terminus and C-terminus assumed), for which the “Minimum Inhibitory Concentration (MIC)” value in [1] is 4 to 8 µg/mL; in [2], 4 µg/mL; in assay [3] it was 4 µg/mL; in assay [4], 4 µg/mL; in [5] it was 16 to 32 µg/mL; in assay [6], 64 to 128 µg/mL. For the same compound, the “Minimum Inhibitory Concentration (MIC)” value was 64 to 128 µg/mL in [7] and 16 to 32 µg/mL with Salmonella Enteritidis. For the same compound, the MBC in assay [3] and in [4] was 4 µg/mL (≈ 1.21 µM) each time. Further, the MIC in [3] and in assay [4] was 4 µg/mL (≈ 1.21 µM) in each case.
For the compound `CC[C@H](C)[C@H](NC(=O)[C@H](Cc1ccccc1)NC(=O)[C@@H]1CCCN1C(=O)[C@H](CC(C)C)NC(=O)[C@@H](N)Cc1ccccc1)C(=O)N[C@@H](C)C(=O)N[C@@H](CCCNC(=N)N)C(=O)N[C@@H](CC(C)C)C(=O)N[C@@H](C)C(=O)N[C@@H](C)C(=O)N[C@@H](CCCCN)C(=O)N[C@H](C(=O)N[C@@H](Cc1ccccc1)C(=O)N1CCC[C@H]1C(=O)N[C@@H](CO)C(=O)N[C@H](C(=O)N[C@H](C(=O)N[C@@H](CS)C(=O)N[C@@H](CO)C(=O)N[C@H](C(=O)N[C@H](C(=O)N[C@@H](CCCCN)C(=O)N[C@@H](CCCCN)C(=O)N[C@@H](CS)C(=O)O)[C@@H](C)O)C(C)C)[C@@H](C)CC)[C@@H](C)CC)C(C)C` [Ran-4] (H-FLPFIARLAAKVFPSIICSVTKKC-OH; N-terminus and C-terminus assumed), the “Minimum Inhibitory Concentration (MIC)” value fell in the range of 4 to 8 µg/mL in assay [1]; 4 to 8 µg/mL in [2]; 4 to 8 µg/mL in assay [3]; 2 to 4 µg/mL in assay [4]; 16 to 32 µg/mL in [5]; 64 to 128 µg/mL in assay [6]. The figures for the “Minimum Inhibitory Concentration (MIC)” value (in assay [7]; with Salmonella Enteritidis) were 64 to 128 µg/mL and 16 to 32 µg/mL, respectively.
As to “ALVAKIQKFPVFNTLKLCKLELEII [Peptide P11_CCH]”, the MIC in assay [5] was 128 µg/mL; in [7], 64 µg/mL; with Salmonella Enteritidis, 32 µg/mL; in assay [8], more than 256 µg/mL; in assay [12] it was more than 256 µg/mL; in assay [9], more than 256 µg/mL. The MIC in [10] and in assay [11] was more than 256 µg/mL each time. Further, the minimum bactericidal concentration (MBC) in [8], in assay [12], in assay [9], in assay [10] and in assay [11] was more than 256 µg/mL throughout.
Turning to “ALVAKIQKFPVFNTLKLCKLKLRII [P11_CCH_E21K_E23R]”, the MBC in [1] is 128 µg/mL; in assay [4], 32 µg/mL. The MIC came to 128 µg/mL in assay [5], 128 µg/mL in [7] and 64 µg/mL against Salmonella Enteritidis.
For the compound IQRLPVIKMLKLWKLELKII [P13_CCH_N8K_E18K], the MIC is ~64? μg/mL in assay [1] (CPO E. coli (NDM), Run No. 4); ~64? μg/mL in [1] (CPO E. coli (NDM), Run No. 5); 64 µg/mL in [2]; 32 µg/mL in [4]; 32 µg/mL in assay [5]; ~16? μg/mL in [5] (setting [13]). Further, the MIC in [5] (setting [14]) is ~16? μg/mL; in assay [7] it was 256 µg/mL; in the assay on Salmonella Enteritidis it was 16 µg/mL.
Consider IQRLPVINMLKLWKLELEII [Peptide P13_CCH], for which the MIC in assay [1] is 256 µg/mL; in [5], 32 µg/mL; in assay [5] (setting [13]), ~32? μg/mL; in [5] (setting [14]), ~32? μg/mL; in assay [7], 128 µg/mL; with Salmonella Enteritidis it was 16 µg/mL. The MIC in [8], in assay [12], in assay [9], in assay [10] and in assay [11] was more than 256 µg/mL each time. Further, the MBC in assay [8], in assay [12], in [9], in assay [10] and in assay [11] was more than 256 µg/mL each time.

For the origin of these results see patent US12280090B2, “Antimicrobial peptides” (priority 2018, dated 2025).
